Source: patent US11517612B2, “Methods of treating inflammatory skin disorders” (NEPSONE EHF, priority 2016, dated 2022)
Where no end group is shown, it is not given here.

Test system: psoriatic lesion(s)
Assay: Pre-psoriatic rim topical administration and treatment of psoriasis
Type: in vivo
Procedure: In one embodiment, a composition for topical administration was prepared using the peptide CGRP8-37 in a topical formulation at 20 μg/g. The effective range of the peptide in the composition can be between 0.00001 μg/g to […], depending on formulation and measured penetration parameters. The described composition was applied to an area at least partially around the psoriatic lesion(s), termed the pre-psoriatic rim, which was determined using well known laser Doppler flowmetry. […] 10 μg/g of the peptide was applied twice daily for 4 weeks. The composition was purposely not applied directly to the lesion. Without being held to a single theory, a novel local neural transport mechanism appears to be responsible for the effects observed by the pre-psoriatic rim administration resulting in treatment of psoriasis. Topical steroids are usually applied directly on lesions as is the convention for most topical treatments. Topical steroid molecules are much smaller (<500 Da) then CGRP8-37 (3100 Da) and therefore can more easily penetrate thick skin, topical steroids also have a side-effect on normal skin causing skin atrophy in some cases. That is why, for steroids and some other topical remedies e.g. tar (being irritating to normal skin), applying around the lesion is not recommended. […]

CGRP8-37: CGRP derivative peptide, high affinity CGRP receptor antagonist; sequence SEQ ID NO:1 or SEQ ID NO:2; used in topical formulation (VTHRLAGLLSRSGGVVKNNFVPTNVGSKAF; ends and bridges not checked; UniProt P06881 90-119, looked up, fragment)
improvement at low dosage (applied around the lesion, doses as low as 1 μg/g of topical formulation): significant improvement
response of psoriatic lesion (plaque on right shoulder, FIGS. 8-10) (topical composition applied to pre-psoriatic rim, not directly to the lesion, 10 μg/g of the peptide twice daily for 4 weeks): clearing completely
